Patent US4616086A, “Piperazine-substituted aryl and aralkyl carboxylic acids useful for treating infirmaties caused by excess lipids or thrombocyte” (Boehringer Mannheim GmbH, priority 1981, dated 1986)
Read-outs that look alike come from different tables or passages of the source.

Assays:
[1] = test system: cholesterol and triglyceride levels in the serum; experiment: Lowering of Lipid Levels (cholesterol and triglyceride levels in the serum of male rats of normal metabolism, 7 days); type: in vivo; conditions: 100 mg/kg/d for 7 days in methyl cellulose suspension, serum 3 hours after last dose, in comparison to control; for inhibition in vivo at 100 mg/kg/day: Rattus norvegicus, po
Method: In each case, 10 male rats of normal metabolism were administered the test substance for 7 days in a dosage of 100 mg/kg/d in methyl cellulose suspension. At the end of the experiment, 3 hours after the last does was administered, the cholesterol and triglyceride levels in the serum were determined. The changes are given in Table I expressed as a percentage in comparison to control for a representative selection of compounds.

thrombocyte aggregation = experiment: Inhibition of Aggregation (Born test, adrenalin-induced thrombocyte aggregation, platelet-rich plasma); type: cell-based, human; conditions: for % of inhibition of thrombocyte aggregation: human PRP, adrenalin 5×10^-6 mol/l, 2nd phase, test concentration 14^-4 mol/l [sic]
Method: Venous blood from subjects of normal metabolism is mixed with sodium citrate (9:1). The erythrocytes are settled by centrifugation at 150 g. The thrombocytes are concentrated in the supernatant. This supernatant is referred to as platelet-rich plasma (PRP). An aliquot of the PRP is placed in the cell of an aggregometer (Universal Aggregometer mfd. by Braun Melsungen) and there stirred by means of a small magnet. The substance to be tested is added in an aqueous solution (pH approx. 7). Changes in the light transmission in the suspension are continuously registered by a recorder. After spontaneous aggregation ends, aggregation is triggered by the addition of adrenalin (end concentration 5×10^-6 mol/l). Larger clumps of thrombocytes form and this causes the transmission of light through the suspension to increase.
The adrenalin-induced aggregation takes place in two phases, i.e., the light transmission first increases, then briefly remains steady, and then again increases. Only the second phase of the aggregation can be influenced by aggregation inhibitors.
With the same PRP, aggregation is induced with adrenalin after addition of the test substance and the course of the aggregation is registered with the recorder. The angle of the 2nd phase from the horizontal is again determined and the ratio of the two angles gives the percentage of inhibition of the 2nd phase of the thrombocyte aggregation.
All substances were tested in a concentration of 14^-4 mol/l in determining their aggregation inhibiting action.

[2] = read-out: % of reduction of cholesterol
[3] = read-out: % of reduction of triglycerides
[4] = Homo sapiens, read-out: inhibition of the 2nd phase of thrombocyte aggregation (standard)

Compound | inhibition in vivo at 100 mg/kg/day [1, 2] [%] | inhibition in vivo at 100 mg/kg/day [1, 3] [%] | also measured
CCCCCCCCCCCCCCCCN1CCN(c2ccc(CCC(=O)O)cc2)CC1 [Example 58, 3-[4-(1-n-Hexadecylpiperazin-4-yl)-phenyl]-propionic acid] | 17 | 6 | 
O=C(O)c1ccc(N2CCN(CCCc3ccccc3)CC2)cc1 [13 i] | 38 | 15 | 
O=C(O)c1ccc(CCN2CCN(C(=O)c3ccc(Cl)cc3)CC2)cc1 [33 i] |  |  | % of reduction of cholesterol [1]: 41%; % of reduction of triglycerides [1]: 24%
CC(CN1CCN(c2ccc(C=CC(=O)O)cc2)CC1)Oc1ccccc1 (centres unmarked) [65 d1] | 5 | 20 | 
O=C(O)c1ccc(CCN2CCN(Cc3ccc(Cl)cc3)CC2)cc1 [33 b] | 40 | 30 | % of inhibition of thrombocyte aggregation (thrombocyte aggregation): 19%
CC(=Cc1ccc(CCN2CCN(C(=O)c3ccc(Cl)cc3)CC2)cc1)C(=O)O [67 d1] | 37 | 9 | 
CCOC(=O)c1ccc(CCCN2CCN(C(=O)c3ccc(Cl)cc3)CC2)cc1 [55 b] | 33 | 3 | 
O=C(O)c1ccc(CCN2CCN(CC=Cc3ccc(Cl)cc3)CC2)cc1 [34 c] | 30 | 40 | % of inhibition of thrombocyte aggregation (thrombocyte aggregation): 7%
CC(=O)Oc1ccccc1C(=O)O [acetylsalicylic acid, reference compound] |  |  | inhibition at 50 µM (thrombocyte aggregation; [4]): 0%; inhibition at 100 µM (thrombocyte aggregation; [4]): 100%
O=C(O)c1ccc(CCN2CCN(c3ccc(Oc4ccccc4)cc3)CC2)cc1 [33 r] | 33 | 15 | 
O=C(O)c1ccc(CCN2CCN(S(=O)(=O)c3ccc(Cl)cc3)CC2)cc1 [33 o] | 35 | 13 | 
CC(CN1CCN(CCc2ccc(C(=O)O)cc2)CC1)Oc1ccccc1 (centres unmarked) [33 d] |  |  | % of inhibition of thrombocyte aggregation (thrombocyte aggregation): 6%; % of reduction of cholesterol [1]: 43%; % of reduction of triglycerides [1]: 41%
CC(C)(C)c1cc(CCN2CCN(c3ccc(CC(=O)O)cc3)CC2)cc(C(C)(C)C)c1O [50 j] | 40 | 0 | 
COc1ccc(OC(C)CN2CCN(CCc3ccc(C(=O)O)cc3)CC2)cc1 (centres unmarked) [33 f] |  |  | % of reduction of cholesterol [1]: 37%; % of reduction of triglycerides [1]: 42%
CC(Cc1ccc(Cl)cc1)CN1CCN(CCc2ccc(C(=O)O)cc2)CC1 (centres unmarked) [33 u] | 28 | 32 | 
O=C(O)Cc1ccc(N2CCN(S(=O)(=O)c3ccccc3)CC2)cc1 [50 o] | 26 | 14 | 
O=C(O)Cc1ccc(CCN2CCN(S(=O)(=O)c3ccc(Cl)cc3)CC2)cc1 [49 e] | 41 | 8 | 
CCOC(=O)c1ccc(N2CCNCC2)cc1 [Example 1, Ethyl 4-(piperazin-1-yl)-benzoate] |  |  | hygroscopicity (hydrochloride): hydroscopic
O=C(O)c1ccc(CCN2CCN(Cc3ccccc3Cl)CC2)cc1 [34 i] |  |  | % of inhibition of thrombocyte aggregation (thrombocyte aggregation): 100%; % of reduction of cholesterol [1]: 21%; % of reduction of triglycerides [1]: 10%
CS(=O)(=O)N1CCN(CCc2ccc(C(=O)O)cc2)CC1 [33 m] | 20 | 30 | 
O=C(O)c1ccc(CCN2CCN(CCOc3ccccc3)CC2)cc1 [33 c] | 13 | 11 | % of inhibition of thrombocyte aggregation (thrombocyte aggregation): 40%
O=C(O)c1ccc(CCN2CCN(CC=Cc3ccc([N+](=O)[O-])cc3)CC2)cc1 [Example 34o, 4-{2-[1-(4-nitrocinnamyl)-piperazin-4-yl]-ethyl}-benzoic acid] |  |  | light sensitivity: Light sensitive
CCCCOC(=O)CCc1ccc(N2CCN(C(=O)C=Cc3ccc(Cl)cc3)CC2)cc1 [Example 55, n-Butyl 3-{4-[1-(4-chlorocinnamoyl)-piperazin-4-yl]-phenyl}-propionate] |  |  | light sensitivity: light-sensitive
CC(C)(C)c1cc(C=CC(=O)N2CCN(CCc3ccc(CC(=O)O)cc3)CC2)cc(C(C)(C)C)c1O [50 f] | 40 | 16 | 
CC(C)(C)c1cc(CCC(=O)N2CCN(CCc3ccc(C(=O)O)cc3)CC2)cc(C(C)(C)C)c1O [33 l] |  |  | % of reduction of cholesterol [1]: 38%; % of reduction of triglycerides [1]: 22%
O=C(O)Cc1ccc(CCN2CCN(S(=O)(=O)c3ccccc3)CC2)cc1 [50 g] | 28 | 9 | 
CC(CN1CCN(CCc2ccc(C(=O)O)cc2)CC1)Oc1ccc([N+](=O)[O-])cc1 (centres unmarked) [34 s] | 47 | 21 | 
